Laboratory results taken from US6924302B2, “Substituted triazole diamine derivatives as kinase inhibitors” (Ortho McNeil Pharmaceutical, Inc., priority 2000, dated 2005).

Assays:
[1] = tested on: HCT-116 colon carcinoma; assay: Inhibition of Cell Proliferation (14C-thymidine incorporation), HCT-116; assay type: cell-based; conditions: Homo sapiens, HCT-116 cell line
Description: The ability of a test compound to inhibit the proliferation of cell growth was determined by measuring incorporation of ^14C-labelled thymidine into newly synthesized DNA within the cells. This method was used on cell lines derived from carcinomas originating from several tissues such as HeLa cervical adenocarcinoma (American Type Culture Collection (ATCC), Virginia, Cat. #CCL-2), A375 malignant melanoma (ATCC CRL-1619), SK-OV-3 ovarian adenocarcinoma (ATCC HTB-77) HCT-116 colon carcinoma (CCL-247), PC-3 prostate adenocarcinoma (ATCC CRL-1435), and MDA-MB-231 (Xenogen Corp.) In this way the effect of a compound on cell growth of cells with many different phenotypes can be determined. Cells were trypsinized and counted and 3000-8000 cells were added to each well of a 96-well CytoStar tissue culture treated scintillating microplate (Amersham #RPNQ0160) in complete medium in a volume of 100 μl. Cells were incubated for 24 hours in complete medium at 37° C. in an atmosphere containing 5% CO2. Next, 1 μl of test compound in 100% DMSO was added to the wells of the plate. DMSO only was added to control wells. Cells were incubated for 24 more hours in complete medium at 37° C. in an atmosphere containing 5% CO2. Methyl ^14C-thymidine 56 mCi/mmol (NEN #NEC568 or Amersham #CFA532) was diluted in complete medium and 0.2 uCi/well was added to each well of the CytoStar plate in a volume of 20 μl. The plate was incubated for 24 hours at 37° C. plus 5% CO2 in drug plus ^14C-thymidine. The contents of the plate were discarded into a ^14C radioactive waste container by inverting the plate and the plate was washed twice with 200 μl PBS. 200 μl of PBS is added to each well. The top of the plate was sealed with a transparent plate sealer and a white plate backing sealer (Packard #6005199) was applied to the bottom of the plate. The degree of methyl ^14C-thymidine incorporation was quantified on a Packard Top Count.

[2] = target: T1, Casein Kinase 1 (CK1 delta isoform) (Rattus norvegicus, UniProt Q06486); assay: Kinase Selectivity Assay Casein Kinase 1; assay type: biochemical; conditions: Tables 2a-2k, read-out: Caseine Kinase 1 IC50
T1 construct: a truncation at amino acid 318 of the C-terminal portion of the rat CK1 delta isoform; purchased New England Biolabs 6030; host or cells: E. coli
T1 sequence (Q06486 1-317): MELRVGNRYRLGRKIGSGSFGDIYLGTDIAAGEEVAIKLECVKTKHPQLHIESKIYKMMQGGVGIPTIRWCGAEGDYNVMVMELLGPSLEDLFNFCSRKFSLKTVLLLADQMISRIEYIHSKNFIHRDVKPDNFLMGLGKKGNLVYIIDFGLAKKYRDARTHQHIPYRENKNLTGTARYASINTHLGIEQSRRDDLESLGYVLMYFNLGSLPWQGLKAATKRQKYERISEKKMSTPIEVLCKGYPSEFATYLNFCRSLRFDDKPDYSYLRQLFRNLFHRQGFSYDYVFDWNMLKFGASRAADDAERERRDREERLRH
Description: Assays to test compound inhibition of other kinases were preformed using methods that measure the amount of phosphorylation of a biotinylated peptide substrate. Biotinylated peptide substrates were selected from the literature as appropriate for the enzyme being evaluated. […] Assay conditions vary slightly for each protein kinase, for example, insulin receptor kinase requires 10 mM MnCl2 for activity and Calmodulin-dependent protein kinase requires calmodulin and 10 mM CaCl2. These assay conditions are known in the art. The reaction mixture was dispensed into the wells of a streptavidin coated Flashplate and 1 μl drug stock in 100% DMSO was added to a 100 μl reaction volume resulting in a final concentration of 1% DMSO on the reaction. Enzyme was diluted in 50 mM Tris-HCl pH=8.0, 0.1% BSA and add to each well. The reaction was incubated for one hour at 30° C. in the presence of compound. After one hour the reaction mix was aspirated from the plate and the plate was washed with PBS containing 100 mM EDTA. The plate was read on a scintillation counter to determine ^33P-γ-ATP incorporated into the immobilized peptide. Test compounds were assayed in duplicate at 8 concentrations [100 uM, 10 uM, 1 uM, 100 nM, 10 nM, 1 nM, 100 pM, 10 pM]. A maximum and minimum signal for the assay was determined on each plate. The IC50 was calculated from the dose response curve of the percent inhibition of the maximum signal in the assay according to the formula [max signal—background/test compound signal—background (100)=% inhibition] by graphing the percent inhibition against the log concentration of test compound. Known inhibitor compounds appropriate for the kinase being assayed were also included on each plate.
CDK2 in complex with cyclin A is commercially available (Upstate Biotech, Lake Placid, N.Y.). The CDK4 complex was composed of a mouse CDK4 protein and a mouse Cyclin D1 protein (The mouse CDK4 protein was genetically fused to an N-terminal Flag-epitope tag and the mouse Cyclin D1 protein was fused with an N-terminal AU-1 epitope tag. The genes encoding these proteins were transferred to commercially available baculoviral vectors. The recombinant CDK4/D1 complex was then made by co-infecting commercially available insect cells with viruses carrying these two constructs). […] ERK-1 protein (Discontinued from Calbiochem). EGFR (epidermal growth factor receptor) is purified from human A431 cell membranes (Sigma, St. Louis, Mo., Cat.# E3641).

SMILES	IC50 [1] [nM]	IC50 [2] [nM]
Nc1nc(Nc2ccc(S(N)(=O)=O)cc2)nn1C(=O)c1c(F)cccc1F [Cpd 1, 4-[[5-amino-1-(2,6-difluorobenzoyl)-1H-1,2,4-triazol-3-yl]amino]-benzenesulfonamide]	254	–
Nc1nc(Nc2ccc(S(N)(=O)=O)cc2)nn1C(=O)c1cccs1 [Cpd 14, 4-[[5-amino-1-(2-thienylcarbonyl)-1H-1,2,4-triazol-3-yl]amino]-benzenesulfonamide]	1940	348
Nc1nc(Nc2ccc(S(N)(=O)=O)cc2)nn1C(=O)c1sccc1F [Cpd 16, 4-[[5-amino-1-[(3-fluoro-2-thienyl)carbonyl]-1H-1,2,4-triazol-3-yl]amino]-benzenesulfonamide]	213	214
Nc1nc(Nc2ccc(S(N)(=O)=O)cc2)nn1C(=O)c1sccc1Cl [Cpd 17, 4-[[5-amino-1-[(3-chloro-2-thienyl)carbonyl]-1H-1,2,4-triazol-3-yl]amino]-benzenesulfonamide]	309	643
Nc1nc(Nc2ccc(S(=O)(=O)N3CCCCC3)cc2)nn1C(=O)c1cccs1 [Cpd 23, N^3-[4-(1-piperidinylsulfonyl)phenyl]-1-(2-thienylcarbonyl)-1H-1,2,4-triazole-3,5-diamine]	376	113
Nc1nc(Nc2ccc(S(N)(=O)=O)cc2)nn1C(=O)c1ccsc1 [Cpd 30, 4-[[5-amino-1-(3-thienylcarbonyl)-1H-1,2,4-triazol-3-yl]amino]-benzenesulfonamide]	1930	1540
CCc1ccc(C(=O)n2nc(Nc3ccc(S(N)(=O)=O)cc3)nc2N)s1 [Cpd 32, 4-[[5-amino-1-[(5-ethyl-2-thienyl)carbonyl]-1H-1,2,4-triazol-3-yl]amino]-benzenesulfonamide]	26	181
Cc1nc(C)c(C(=O)n2nc(Nc3ccc(S(N)(=O)=O)cc3)nc2N)s1 [Cpd 34, 4-[[5-amino-1-[(2,4-dimethyl-5-thiazolyl)carbonyl]-1H-1,2,4-triazol-3-yl]amino]-benzenesulfonamide]	996	182
Nc1nc(Nc2ccc(S(N)(=O)=O)cc2)nn1C(=O)c1sccc1Br [Cpd 35, 4-[[5-amino-1-[(3-bromo-2-thienyl)carbonyl]-1H-1,2,4-triazol-3-yl]amino]-benzenesulfonamide]	172	–
Nc1nc(Nc2ccc(S(N)(=O)=O)cc2)nn1C(=O)C1CCCC1 [Cpd 38, 4-[[5-amino-1-(cyclopentylcarbonyl)-1H-1,2,4-triazol-3-yl]amino]-benzenesulfonamide]	2270	6100
Nc1nc(Nc2ccc(S(N)(=O)=O)cc2)nn1C(=O)C1CCCCC1 [Cpd 39, 4-[[5-amino-1-(cyclohexylcarbonyl)-1H-1,2,4-triazol-3-yl]amino]-benzenesulfonamide]	1410	4100
CC(C)(C)c1ccc(C(=O)n2nc(Nc3ccc(S(N)(=O)=O)cc3)nc2N)s1 [Cpd 51, 4-[[5-amino-1-[[5-(1,1-dimethylethyl)-2-thienyl]carbonyl]-1H-1,2,4-triazol-3-yl]amino]-benzenesulfonamide]	–	223
Cc1ccccc1C(=O)n1nc(Nc2ccc(S(N)(=O)=O)cc2)nc1N [Cpd 57, 4-[[5-amino-1-(2-methylbenzoyl)-1H-1,2,4-triazol-3-yl]amino]-benzenesulfonamide]	95	14000
CC(O)c1ccc(F)c(C(=O)n2nc(Nc3ccc(S(N)(=O)=O)cc3)nc2N)c1F (centres unmarked) [Cpd 58, 4-[[5-amino-1-[2,6-difluoro-3-(1-hydroxyethyl)benzoyl]-1H-1,2,4-triazol-3-yl]amino]-benzenesulfonamide]	1270	11200
Cc1ccc(F)c(C(=O)n2nc(Nc3ccc(S(N)(=O)=O)cc3)nc2N)c1Cl [Cpd 69, 4-[[5-amino-1-(2-chloro-6-fluoro-3-methylbenzoyl)-1H-1,2,4-triazol-3-yl]amino]-benzenesulfonamide]	1720	16600
Nc1nc(Nc2ccc(S(N)(=O)=O)cc2)nn1C(=O)c1c(F)cccc1Cl [Cpd 70, 4-[[5-amino-1-(2-chloro-6-fluorobenzoyl)-1H-1,2,4-triazol-3-yl]amino]-benzenesulfonamide]	1580	35700
CN1CCN(c2ccc(Nc3nc(N)n(C(=O)c4c(F)cccc4F)n3)cc2)CC1 [Cpd 71, 1-(2,6-difluorobenzoyl)-N^3-[4-(4-methyl-1-piperazinyl)phenyl]-1H-1,2,4-triazole-3,5-diamine]	–	> 100000
CNS(=O)(=O)c1ccc(Nc2nc(N)n(C(=O)c3c(F)ccc(C)c3F)n2)cc1 [Cpd 81, 4-[[5-amino-1-(2,6-difluoro-3-methylbenzoyl)-1H-1,2,4-triazol-3-yl]amino]-N-methyl-benzenesulfonamide]	778	6960
CNS(=O)(=O)c1ccc(Nc2nc(N)n(C(=O)c3sccc3C)n2)cc1 [Cpd 82, 4-[[5-amino-1-[(3-methyl-2-thienyl)carbonyl]-1H-1,2,4-triazol-3-yl]amino]-N-methyl-benzenesulfonamide]	–	354
CCc1ccc(C(=O)n2nc(Nc3ccc(S(=O)(=O)NC)cc3)nc2N)s1 [Cpd 84, 4-[[5-amino-1-[(5-ethyl-2-thienyl)carbonyl]-1H-1,2,4-triazol-3-yl]amino]-N-methyl-benzenesulfonamide]	–	188
CCc1ccc(C(=O)n2nc(Nc3ccc(S(=O)(=O)NCCN(C)C)cc3)nc2N)s1 [Cpd 103, 4-[[5-amino-1-[(5-ethyl-2-thienyl)carbonyl]-1H-1,2,4-triazol-3-yl]amino]-N-[2-(dimethylamino)ethyl]-benzenesulfonamide]	75	322
Cc1ccsc1C(=O)n1nc(Nc2ccc(S(=O)(=O)NCCN(C)C)cc2)nc1N [Cpd 104, 4-[[5-amino-1-[(3-methyl-2-thienyl)carbonyl]-1H-1,2,4-triazol-3-yl]amino]-N-[2-(dimethylamino)ethyl]-benzenesulfonamide]	41	624
Cc1cc(C)c(C(=O)n2nc(Nc3ccc(NS(C)(=O)=O)cc3)nc2N)s1 [Cpd 108, N-[4-[[5-amino-1-[(3,5-dimethyl-2-thienyl)carbonyl]-1H-1,2,4-triazol-3-5 yl]amino]phenyl]-methanesulfonamide]	–	816
Cc1ccsc1C(=O)n1nc(Nc2ccc(N3CCNC3=O)cc2)nc1N [Cpd 113, 1-[4-[[5-amino-1-[(3-methyl-2-thienyl)carbonyl]-1H-1,2,4-triazol-3-yl]amino]phenyl]-2-imidazolidinone]	281	318
